Test results from PubChem BioAssay AID330 (DTP/NCI, 2004).
Several values for one entry are separate records, joined by “and”; a condition that tells them apart may be missing. Equal entries are not always repeated. Inconclusive results and toxic doses are left out.

System: P388 leukemia ip, CD2F1 mice, survival T/C
Assay: NCI In Vivo Anticancer Drug Screen. Data for tumor model P388 Leukemia (intraperitoneal) in CD2F1 (CDF1) mice
Conditions: endpoint: median survival time, higher = longer survival
Outline: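 Mice carrying the transplanted tumor received test compound or vehicle. Survival was recorded in each group, and the value is the treated-group measurement divided by that of the vehicle-treated control group.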

[1] = dose: 50.0 mg/kg/injection, schedule: Q01DX005 (ip), vehicle: Klucel (hydroxypropylcellulose) (HPC)
[2] = dose: 100.0 mg/kg/injection, schedule: Q01DX005 (ip), vehicle: Klucel (hydroxypropylcellulose) (HPC)
[3] = dose: 200.0 mg/kg/injection, schedule: Q01DX005 (ip), vehicle: Klucel (hydroxypropylcellulose) (HPC)
[4] = dose: 60.0 mg/kg/injection, schedule: Q01DX005 (ip), vehicle: saline with Tween-80
[5] = dose: 240.0 mg/kg/injection, schedule: Q01DX005 (ip), vehicle: saline with Tween-80
[6] = dose: 60.0 mg/kg/injection, schedule: Q01DX005 (ip), vehicle: Klucel (hydroxypropylcellulose) (HPC)
[7] = dose: 120.0 mg/kg/injection, schedule: Q01DX005 (ip), vehicle: Klucel (hydroxypropylcellulose) (HPC)
[8] = dose: 50.0 mg/kg/injection, schedule: Q01DX009 (ip), vehicle: saline with Tween-80
[9] = dose: 100.0 mg/kg/injection, schedule: Q01DX009 (ip), vehicle: saline with Tween-80
[10] = dose: 50.0 mg/kg/injection, schedule: Q01DX009 (ip), vehicle: Klucel (hydroxypropylcellulose) (HPC)
[11] = dose: 100.0 mg/kg/injection, schedule: Q01DX009 (ip), vehicle: Klucel (hydroxypropylcellulose) (HPC)
[12] = dose: 200.0 mg/kg/injection, schedule: Q01DX009 (ip), vehicle: Klucel (hydroxypropylcellulose) (HPC)
[13] = dose: 25.0 mg/kg/injection, schedule: Q01DX009 (ip), vehicle: saline with Tween-80
[14] = dose: 200.0 mg/kg/injection, schedule: Q01DX009 (ip), vehicle: saline with Tween-80
[15] = dose: 50.0 mg/kg/injection, schedule: Q01DX005 (ip), vehicle: saline
[16] = dose: 100.0 mg/kg/injection, schedule: Q01DX005 (ip), vehicle: saline
[17] = dose: 200.0 mg/kg/injection, schedule: Q01DX005 (ip), vehicle: saline
[18] = dose: 100.0 mg/kg/injection, schedule: Q04DX003 (ip), vehicle: other
[19] = dose: 200.0 mg/kg/injection, schedule: Q04DX003 (ip), vehicle: other

For `COC(=O)Nc1c2c(nc3ccccc13)-c1ccccc1C(C)(C)C2`, the T/C [1] was 103 % of control, the T/C [2] was 101 % of control and the T/C [3] was 98 % of control.

With `CCCCCCCCCCCCCCCCC1CCCC1C1CCCC1` (configuration not stated) the T/C (dose: 12.5 mg/kg/injection, schedule: Q01DX001 (ip), vehicle: saline with Tween-80) was 104 % of control, the T/C (dose: 25.0 mg/kg/injection, schedule: Q01DX001 (ip), vehicle: saline with Tween-80) was 104 % of control and the T/C (dose: 50.0 mg/kg/injection, schedule: Q01DX001 (ip), vehicle: saline with Tween-80) was 104 % of control.

For `Cc1nc2[nH]ncc2c(=O)n1-c1ccccc1`, the T/C [1] was 97 % of control, the T/C [2] was 99 % of control and the T/C [3] was 100 % of control.

With `COc1ccc(OC(=O)/C=C/c2ccccc2)cc1` the T/C (dose: 85.0 mg/kg/injection, schedule: Q04DX002 (ip), vehicle: saline with Tween-80) was 102 % of control.

With `CCCCCCCCCCCCCCOCCS(=O)(=O)O` the T/C [4] was 86 % of control and the T/C [5] was 100 % of control.

With `CCCCC/C(=C\c1ccccc1)C1OCC(COCC)O1` (configuration not stated) the T/C (dose: 100.0 mg/kg/injection, schedule: Q01DX009 (ip), vehicle: saline + Tween-80 + alcohol) was 119 % of control and the T/C (dose: 200.0 mg/kg/injection, schedule: Q01DX009 (ip), vehicle: saline + Tween-80 + alcohol) was 118 % of control.

With `COc1ccc(/C=N\N=C(/[O-])c2ccccc2O)cc1.COc1ccc(/C=N\N=C(/[O-])c2ccccc2O)cc1.[Cu+2].[OH3+].[OH3+]` the T/C (dose: 25.0 mg/kg/injection, schedule: Q04DX002 (ip), vehicle: saline with Tween-80) was 98 % of control, the T/C (dose: 50.0 mg/kg/injection, schedule: Q04DX002 (ip), vehicle: saline with Tween-80) was 93 % of control and the T/C (dose: 100.0 mg/kg/injection, schedule: Q04DX002 (ip), vehicle: saline with Tween-80) was 93 % of control.

In the case of `COC(=O)C(N)C(F)c1ccccc1` (configuration not stated), the T/C [6] is reported as 107 % of control, the T/C [7] is reported as 100 % of control and the T/C (dose: 240.0 mg/kg/injection, schedule: Q01DX005 (ip), vehicle: Klucel (hydroxypropylcellulose) (HPC)) is reported as 98 % of control.

`Nc1c(OS(=O)(=O)c2ccccc2)cccc1OS(=O)(=O)c1ccccc1` was tested, and the T/C [8] was 91 % of control and the T/C [9] was 90 % of control.

In the case of `CCCCCCCN(CCCCCCC)CCCC(O)c1cccc2ccccc12` (configuration not stated), the T/C (dose: 12.5 mg/kg/injection, schedule: Q01DX005 (ip), vehicle: saline with Tween-80) is reported as 104 % of control, the T/C (dose: 25.0 mg/kg/injection, schedule: Q01DX005 (ip), vehicle: saline with Tween-80) is reported as 107 % of control and the T/C (dose: 50.0 mg/kg/injection, schedule: Q01DX005 (ip), vehicle: saline with Tween-80) is reported as 103 % of control. The T/C (dose: 100.0 mg/kg/injection, schedule: Q01DX005 (ip), vehicle: saline with Tween-80) was 107 % of control.

For `Cc1cc(C)c(S(=O)(=O)Sc2nnnn2-c2ccccc2)c(C)c1`, the T/C [10] was 100 % of control, the T/C [11] was 105 % of control and the T/C [12] was 95 % of control.

In the case of `CC(CN1CCCCC1)C(=O)c1ccc(-c2ccccc2)cc1` (configuration not stated), the T/C [13] is reported as 100 % of control, the T/C [8] is reported as 105 % of control and the T/C [9] is reported as 100 % of control.

For `S=C1NCCOc2ccccc21`, the T/C [6] was 100 % of control and the T/C [7] was 100 % of control.

For `O=C(c1ccccc1)c1ccccc1-c1ccccc1C(=O)c1ccccc1`, the T/C [8] was 102 % of control, the T/C [9] was 92 % of control and the T/C [14] was 87 % of control.

For `CCOc1c/c(=N\N=C(/C)c2ccc(Cl)cc2)n(C)c(=O)n1C`, the T/C [10] was 93 % of control, the T/C [11] was 96 % of control and the T/C [12] was 100 % of control.

With `CC1CCC(C(C)C)C2(C1)OC(CCl)CS2` (configuration not stated) the T/C (dose: 12.5 mg/kg/injection, schedule: Q01DX009 (ip), vehicle: saline with Tween-80) was 106 % of control, the T/C [13] was 114 % of control and the T/C [8] was 114 % of control and 124 % of control.

With `CC(C)CC(N)C(=O)NCCC(=O)O` (configuration not stated) the T/C [15] was 101 % of control, the T/C [16] was 101 % of control and the T/C [17] was 100 % of control.

For `Nc1cccnc1N`, the T/C (dose: 2.5 mg/kg/injection, schedule: Q01DX009 (ip), vehicle: saline) was 98 % of control, the T/C (dose: 3.12 mg/kg/injection, schedule: Q01DX009 (ip), vehicle: saline) was 106 % of control and the T/C (dose: 5.0 mg/kg/injection, schedule: Q01DX009 (ip), vehicle: saline) was 98 % of control. For the same compound, the T/C (dose: 6.25 mg/kg/injection, schedule: Q01DX009 (ip), vehicle: saline) was 106 % of control, the T/C (dose: 10.0 mg/kg/injection, schedule: Q01DX009 (ip), vehicle: saline) was 105 % of control and the T/C (dose: 12.5 mg/kg/injection, schedule: Q01DX009 (ip), vehicle: saline) was 92 % of control and 93 % of control. The T/C (dose: 20.0 mg/kg/injection, schedule: Q01DX009 (ip), vehicle: saline) was 101 % of control.

In the case of `CC1CCC2(CC1=O)C(C)CC(=O)C2C(C)C` (configuration not stated), the T/C [10] is reported as 112 % of control, the T/C [11] is reported as 114 % of control and the T/C [18] is reported as 95 % of control. For the same compound, the T/C [12] was 98 % of control, the T/C [19] was 90 % of control and the T/C (dose: 400.0 mg/kg/injection, schedule: Q04DX003 (ip), vehicle: other) was 100 % of control.

`CN=Cc1ccc(OC)cc1` was tested, and the T/C [13] was 95 % of control, the T/C [8] was 95 % of control and the T/C [9] was 95 % of control.

For `COC(=O)/C(=C\C=C\c1ccccc1)NC(=O)c1ccccc1`, the T/C (dose: 100.0 mg/kg/injection, schedule: Q01DX001 (ip), vehicle: saline with Tween-80) was 100 % of control, the T/C (dose: 200.0 mg/kg/injection, schedule: Q01DX001 (ip), vehicle: saline with Tween-80) was 96 % of control and the T/C (dose: 400.0 mg/kg/injection, schedule: Q01DX001 (ip), vehicle: saline with Tween-80) was 89 % of control.

With `O=C(Nc1ccc(Cl)cc1)OCC1C2C=CC(C2)C1CO` (configuration not stated) the T/C (dose: 100.0 mg/kg/injection, schedule: Q04DX003 (ip), vehicle: Klucel (hydroxypropylcellulose) (HPC)) was 101 % of control, the T/C (dose: 200.0 mg/kg/injection, schedule: Q04DX003 (ip), vehicle: Klucel (hydroxypropylcellulose) (HPC)) was 95 % of control and the T/C (dose: 400.0 mg/kg/injection, schedule: Q04DX003 (ip), vehicle: Klucel (hydroxypropylcellulose) (HPC)) was 104 % of control.

With `Nc1c(I)cc(I)cc1C(=O)O` the T/C [10] was 99 % of control and 101 % of control and the T/C [11] was 101 % of control and 114 % of control.

For `CCOC(=O)c1c(C)cn[nH]c1=O`, the T/C [8] was 96 % of control, the T/C [9] was 99 % of control and the T/C [14] was 95 % of control.

With `Cn1cc(N)c(=O)[nH]c1=O` the T/C [15] was 98 % of control, the T/C [16] was 101 % of control and the T/C [17] was 102 % of control.

`Cn1c(=O)c2c(nc(CF)n2C)n(C)c1=O` was tested, and the T/C (dose: 100.0 mg/kg/injection, schedule: Q01DX001 (ip), vehicle: saline) was 92 % of control and the T/C (dose: 200.0 mg/kg/injection, schedule: Q01DX001 (ip), vehicle: saline) was 96 % of control.

In the case of `FC(F)(F)C1=C(C(F)(F)F)SP(Cl)(c2ccccc2)(c2ccccc2)S1`, the T/C (dose: 50.0 mg/kg/injection, schedule: Q04DX003 (ip), vehicle: other) is reported as 107 % of control, the T/C [18] is reported as 100 % of control and the T/C [19] is reported as 93 % of control.

`CCCCc1ccc(-n2c(C)c(COC(=O)NC)c(COC(=O)NC)c2C)cc1` was tested, and the T/C (dose: 12.5 mg/kg/injection, schedule: Q01DX009 (ip), vehicle: Klucel (hydroxypropylcellulose) (HPC)) was 172 % of control and 190 % of control and the T/C (dose: 25.0 mg/kg/injection, schedule: Q01DX009 (ip), vehicle: Klucel (hydroxypropylcellulose) (HPC)) was 152 % of control and 190 % of control.

With `COc1cc(/C=C2\N=C(C)OC2=O)ccc1O` the T/C [1] was 106 % of control, the T/C [2] was 101 % of control and the T/C [3] was 104 % of control.

With `CC(C)(C)C1(C#N)C(=O)N(c2ccc(Cl)cc2)C12c1ccccc1-c1ccccc12` (configuration not stated) the T/C [10] was 99 % of control, the T/C [11] was 118 % of control and the T/C [12] was 105 % of control.

For `CCN(CC)C/C=C(/C)CCC=C(C)C`, the T/C (dose: 5.0 mg/kg/injection, schedule: Q04DX002 (ip), vehicle: saline with Tween-80) was 103 % of control, the T/C (dose: 10.0 mg/kg/injection, schedule: Q04DX002 (ip), vehicle: saline with Tween-80) was 99 % of control and the T/C (dose: 20.0 mg/kg/injection, schedule: Q04DX002 (ip), vehicle: saline with Tween-80) was 95 % of control.

`C#CCSc1nc2ccccc2s1` was tested, and the T/C [10] was 98 % of control and the T/C [11] was 109 % of control.

With `CC(=O)/C=C1/NC(C(=O)c2ccccc2)=CNC1c1ccccc1` (configuration not stated) the T/C [4] was 102 % of control, the T/C (dose: 120.0 mg/kg/injection, schedule: Q01DX005 (ip), vehicle: saline with Tween-80) was 91 % of control and the T/C [5] was 95 % of control.
